Values quoted from earlier work as cited in US12708633B2, “Cannabidiol-dominant formulations, methods of manufacturing, and uses thereof” (Tilray Brands, Inc., priority 2021, dated 2026).

Tests used:
[1] = due to high intestinal permeability and low aqueous solubility
[2] = humans

Structure (SMILES): C=C(C)[C@@H]1CCC(C)=C[C@H]1c1c(O)cc(CCCCC)cc1O [CBD, Cannabidiol]
- Biopharmaceutical Classification System (BCS) class [1]: Class II
- oral bioavailability [2]: low
